{"source": "patent US20250352541A1", "about": "“THERAPEUTIC FOR CANCER REFRACTORY TO IMMUNE CHECKPOINT INHIBITOR” (Sumitomo Pharma Co., Ltd., priority 2022, published 2025)", "key": {"ES-2 cells [1]": {"test_system": "ES-2 cells", "assay": "Cell growth suppression experiment", "assay_type": "cell-based", "procedure": "ES-2 cells were obtained from the American Type Culture Collection (ATCC). These cells were cultured at 37° C. in the presence of 5% CO2 in a 10% fetal bovine serum, 1% penicillin/streptomycin containing McCoy's 5a medium.\n500 cells were seeded for each well in a 384-well plate, and the evaluated compound was added so that the final concentration of DMSO would be 0.1% to culture the cells for 2 days. After completion of the culture, the cell viability rate was calculated using CellTiter-Glo® 3D Reagent (Promega, G968B).\nThe results of cell growth suppression test on representative compounds of the present disclosure are listed in the following table based on the ranking of I, IT, III, IV, and V (1000 nM<I, 1000 nM>TI>300 nM, 300 nM>III>100 nM, 100 nMV>IV>30 nM, 30 nM>V)."}, "[2]": {"test_system": "mouse renal cancer cells Renca", "assay": "Intracytoplasmic ssDNA evaluation test in cells", "assay_type": "cell-based", "details": "24 hours treatment, versus DMSO", "procedure": "(§1) After 24 hours from seeding of mouse breast cancer cells EMT6 and mouse renal cancer cells Renca, the cells were treated with Example 1 and DMSO and cultured for 24 hours. Thereafter, the cells were collected, and cytoplasmic components were extracted using NE-PER Nuclear and Cytoplasmic Extraction so Reagents (Thermo Fisher Scientific Inc.). After protein quantification and concentration adjustment, ssDNA was quantified using Qbit ssDNA Assay Kit (Thermo Fisher Scientific Inc.)."}, "[3]": {"test_system": "mouse breast cancer cells EMT6", "assay": "Intracytoplasmic ssDNA evaluation test in cells", "assay_type": "cell-based", "details": "EMT6, 24 hours treatment, versus DMSO", "procedure": "as §1"}, "[4]": {"test_system": "Human bone marrow CD34 positive hematopoietic stem cells", "assay": "Human bone marrow cell colony formation test (hemotoxicological evaluation)", "assay_type": "cell-based", "details": "100 nM; for Colony count (/well) mean: 48 hours, then about 2 weeks culture", "procedure": "Human bone marrow CD34 positive hematopoietic stem cells were obtained from Lonza K.K. The frozen cells were thawed in a medium prepared by mixing a Methocult Express medium and a 10% fetal bovine serum with 1% penicillin/streptomycin containing RPMI 1640 medium at 9:1. 5000 cells were seeded per well in a 6 well plate and cultured overnight at 37° C. in the presence of 5% CO2. The evaluated compound was added so that the final concentration of DMSO would be 0.1% and 100 nM, and the cells were cultured for 48 hours. The cells were retrieved and washed with PBS. ⅙ of the amount of cells was seeded in a 12 well plate and cultured for about 2 weeks at 37° C. in the presence of 5% CO2. After completion of culture, the number of colonies formed was calculated using Thiazolyl blue tetrazolium bromide (MTT)."}, "[5]": {"test_system": "Human bone marrow CD34 positive hematopoietic stem cells", "assay": "Human bone marrow cell myeloid lineage differentiation induction test", "assay_type": "cell-based", "details": "3 nM", "procedure": "Human bone marrow CD34 positive hematopoietic stem cells were obtained from Lonza K. K. The frozen cells were thawed in a 1% fetal bovine serum containing IMDM medium and suspended in a Complete hemaTox® Myeloid Medium. 1000 cells were seeded per well in a 96-well plate. The evaluated compound was added so that the final concentration of DMSO would be 0.1% and 3 nM, and the cells were cultured for 7 days at 37° C. in the presence of 5% CO2. After completion of culture, half of the amount of cell suspension was retrieved from each well. The luminescence was measured using CellTiter-Glo® 3D Reagent (Promega, G968B) to calculate the cell survival percentage by the following equation."}, "[6]": {"assay": "Liposome encapsulation test (Test Example 6)", "assay_type": "physicochemical", "procedure": "6.48 g of hydrogenated soybean phosphatidylcholine (COATSOME NC-21E, NOF Corporation), 2.32 g of cholesterol (Sigma) and 2.06 g of distearoylphosphatidylethanolamine-methoxypolyethylene glycol 2000 (SUNBRIGHT DSPE-020CN, NOF Corporation) were dissolved in 560 mL of t-butyl alcohol heated to 65° C. The solution was frozen with dry ice/acetone bath and t-butyl alcohol was then removed by evaporation under reduced pressure to obtain a lipid mixture.\n200 mL of 250 mM ammonium sulfate solution was added to the lipid mixture. The resulting mixture was heated to 65° C. and dispersed with a homogenizer (ULTRA-TURRAX, IKA) to obtain a crude liposome dispersion. […] The prepared amount was increased or decreased appropriately.\n2 to 3 mg of the test compound was weighed out. […] An aqueous 1 mol/L hydrochloric acid or 1 mol/L sodium hydroxide solution was added to adjust the pH to 5.5 to 7. […] Insolubles, when present, were removed by centrifugation for 5 minutes at 15,000× g.\nThe liposome encapsulation ratio was calculated as follows.\n100 μL of liposome solution was passed through an ultrafiltration filter (Amicon Ultra, 100K, 0.5 mL, Merck), and centrifuged at 4° C. at 15,000×g for 10 minutes. The concentration of the compound in the filtrate after ultrafiltration was measured by HPLC as the unencapsulated compound concentration.\nThe liposome solution was diluted with a trifluoroacetic acid/water/methanol mixture (0.1/25/75) and was left standing for 10 minutes or longer at 5° C. The solution was centrifuged for 5 minutes at 15,000× g to remove insolubles. The compound concentration in the supernatant was measured by HPLC as the compound concentration in the liposome solution.\nThe encapsulation ratio and the encapsulation efficiency were calculated by the following equations.\nHPLC measurement conditions are the following."}, "CYP3A4": {"molecular_target": "CYP3A4 (Homo sapiens (Human), UniProt P08684)", "sequence (P08684 whole entry)": "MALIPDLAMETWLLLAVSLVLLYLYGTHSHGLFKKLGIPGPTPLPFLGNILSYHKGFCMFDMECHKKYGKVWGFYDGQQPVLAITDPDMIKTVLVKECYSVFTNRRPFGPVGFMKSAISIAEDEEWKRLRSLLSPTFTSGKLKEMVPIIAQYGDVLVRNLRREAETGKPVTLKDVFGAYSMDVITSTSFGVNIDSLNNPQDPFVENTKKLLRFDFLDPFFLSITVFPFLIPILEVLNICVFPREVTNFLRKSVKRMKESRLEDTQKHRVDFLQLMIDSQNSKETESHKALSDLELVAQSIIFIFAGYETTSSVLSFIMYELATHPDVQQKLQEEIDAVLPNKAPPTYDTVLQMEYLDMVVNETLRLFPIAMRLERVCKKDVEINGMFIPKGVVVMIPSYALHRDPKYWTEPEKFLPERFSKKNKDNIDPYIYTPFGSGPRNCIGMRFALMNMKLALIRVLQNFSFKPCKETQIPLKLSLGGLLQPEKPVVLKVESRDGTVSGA", "assay": "CYP3A4 MBI and enzyme inactivation clearance evaluation", "assay_type": "in vitro ADME", "procedure": "The effect and mode of inhibition of the test compound on CYP3A4 were evaluated using a human liver microsome as an enzyme source and midazolam or testosterone as a substrate. […] The IC50 value was calculated from a concentration plot."}, "[7]": {"assay": "Liposome encapsulation test of Example 1 (Test Example 6a)", "assay_type": "physicochemical"}, "hERG current": {"molecular_target": "hERG current (Homo sapiens (Human), UniProt Q12809)", "sequence (Q12809 whole entry)": "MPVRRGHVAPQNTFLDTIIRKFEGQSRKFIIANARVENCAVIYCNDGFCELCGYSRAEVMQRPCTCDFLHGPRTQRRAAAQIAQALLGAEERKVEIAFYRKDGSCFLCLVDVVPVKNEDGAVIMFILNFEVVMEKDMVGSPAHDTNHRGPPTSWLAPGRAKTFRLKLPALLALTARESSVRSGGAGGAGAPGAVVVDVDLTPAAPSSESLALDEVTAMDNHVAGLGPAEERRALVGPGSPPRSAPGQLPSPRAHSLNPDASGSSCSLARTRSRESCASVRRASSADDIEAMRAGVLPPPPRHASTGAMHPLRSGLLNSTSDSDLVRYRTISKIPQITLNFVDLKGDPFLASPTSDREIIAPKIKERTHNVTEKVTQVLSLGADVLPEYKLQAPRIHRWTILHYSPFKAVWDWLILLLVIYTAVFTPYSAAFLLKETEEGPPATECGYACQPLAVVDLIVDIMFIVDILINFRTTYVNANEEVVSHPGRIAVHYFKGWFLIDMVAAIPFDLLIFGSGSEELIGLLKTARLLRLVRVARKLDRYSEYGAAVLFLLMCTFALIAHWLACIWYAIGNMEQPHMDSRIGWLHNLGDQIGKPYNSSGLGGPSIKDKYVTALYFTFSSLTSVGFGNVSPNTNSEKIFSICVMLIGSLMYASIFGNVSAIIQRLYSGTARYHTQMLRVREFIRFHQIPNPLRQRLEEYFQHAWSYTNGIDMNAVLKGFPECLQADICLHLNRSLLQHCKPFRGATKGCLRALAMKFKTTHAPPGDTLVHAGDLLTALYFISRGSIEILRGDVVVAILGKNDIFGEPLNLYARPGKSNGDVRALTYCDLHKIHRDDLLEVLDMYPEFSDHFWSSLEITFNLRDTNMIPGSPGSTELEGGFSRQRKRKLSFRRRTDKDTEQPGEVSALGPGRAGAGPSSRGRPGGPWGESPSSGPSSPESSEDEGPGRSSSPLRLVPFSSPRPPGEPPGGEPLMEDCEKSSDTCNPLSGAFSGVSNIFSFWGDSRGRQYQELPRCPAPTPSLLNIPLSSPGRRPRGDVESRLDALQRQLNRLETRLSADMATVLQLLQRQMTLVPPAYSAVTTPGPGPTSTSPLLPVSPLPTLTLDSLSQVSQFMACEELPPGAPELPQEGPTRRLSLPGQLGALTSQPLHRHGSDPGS", "assay": "hERG current blocking test", "details": "IC50 of hERG divided by IC50 of CHK1 inhibition", "protocol": "The test compounds were added to cultured hERG (human Ether-a-go-go Related Gene) gene stably expressing CHO cell line cells to achieve 0.27 to 100 μM."}, "CHK1": {"molecular_target": "CHK1 (Homo sapiens (Human), UniProt O14757)", "sequence (O14757 whole entry)": "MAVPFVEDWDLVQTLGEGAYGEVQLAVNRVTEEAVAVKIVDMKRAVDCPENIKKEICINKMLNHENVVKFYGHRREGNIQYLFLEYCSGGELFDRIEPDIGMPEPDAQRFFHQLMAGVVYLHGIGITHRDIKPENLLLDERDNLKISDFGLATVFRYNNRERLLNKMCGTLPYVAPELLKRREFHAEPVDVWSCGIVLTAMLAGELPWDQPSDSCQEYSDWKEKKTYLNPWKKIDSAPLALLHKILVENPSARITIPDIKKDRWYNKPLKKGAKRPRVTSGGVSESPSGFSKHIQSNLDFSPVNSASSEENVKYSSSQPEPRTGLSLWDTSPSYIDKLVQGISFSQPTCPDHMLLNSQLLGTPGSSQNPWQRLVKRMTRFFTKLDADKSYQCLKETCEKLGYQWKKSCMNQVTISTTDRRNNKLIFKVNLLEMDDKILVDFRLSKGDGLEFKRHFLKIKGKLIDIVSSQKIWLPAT", "assay": "CHK1 inhibitory activity test (IMAP TR-FRET)", "protocol": "IMAP TR-FRET Screening Express Kit (R8160) was obtained from Molecular Devices. […] FAM-PKAtide (R7255, Molecular Devices) and FAM-Phospho-PKAtide (R7304, Molecular Devices) were admixed after dilution, and calibration standard systems for phosphorylation levels from 0 to 100% were created. 5 μL of a compound dissolved in a 0.4% DMSO solution was added to a 384 well plate. A compound study group to which 5 μL of each of CHK1, CHK1tide, and ATP was added, and a standard group to which 20 μL of standard was added were created, and subjected to a kinase reaction for 3 hours at 30° C. Subsequently, 60 μL of Binding Reagent (80% Buffer A, 20% Buffer B, 1:600 Binding Reagent, 1:400 Tb-Donor) was added for a binding reaction for 2 hours at room temperature."}, "ES-2 cells [8]": {"test_system": "ES-2 cells", "assay": "Concomitantly used drug efficacy evaluation test using tumor-bearing mice transplanted with ES-2 cells (gemcitabine)", "assay_type": "in vivo, BALB/c-nu/nu mice", "details": "Peritoneal, 30 mg/kg, 14 days, 2 times/week", "excerpt": "The test compound was weighed out."}, "neutrophils": {"test_system": "neutrophils", "details": "30 mg/kg, 14 days, 2 times/week, blood 96 hours after the final administration", "protocol": "The test compound was weighed out. An empty liposome solution with a total lipid concentration of 50 mM was added so that the compound concentration would be 2 mg/mL, and 1 mol/L hydrochloric acid was added to adjust the pH to 6 to 7. Alternatively, 10 mM L-histidine buffer/10% sucrose solution (pH 6.5) and hydrochloric acid were added to the test compound to dissolve or disperse the compound, and an empty liposome solution with a total lipid concentration of 75 mM was added so that the compound concentration would be 2 mg/mL, and the pH was adjusted to 6 to 7.\nBlood was collected 96 hours after the final administration to measure the neutrophil count."}, "ARK5/NUAK1": {"molecular_target": "ARK5/NUAK1 (Homo sapiens (Human), UniProt O60285)", "sequence (O60285 whole entry)": "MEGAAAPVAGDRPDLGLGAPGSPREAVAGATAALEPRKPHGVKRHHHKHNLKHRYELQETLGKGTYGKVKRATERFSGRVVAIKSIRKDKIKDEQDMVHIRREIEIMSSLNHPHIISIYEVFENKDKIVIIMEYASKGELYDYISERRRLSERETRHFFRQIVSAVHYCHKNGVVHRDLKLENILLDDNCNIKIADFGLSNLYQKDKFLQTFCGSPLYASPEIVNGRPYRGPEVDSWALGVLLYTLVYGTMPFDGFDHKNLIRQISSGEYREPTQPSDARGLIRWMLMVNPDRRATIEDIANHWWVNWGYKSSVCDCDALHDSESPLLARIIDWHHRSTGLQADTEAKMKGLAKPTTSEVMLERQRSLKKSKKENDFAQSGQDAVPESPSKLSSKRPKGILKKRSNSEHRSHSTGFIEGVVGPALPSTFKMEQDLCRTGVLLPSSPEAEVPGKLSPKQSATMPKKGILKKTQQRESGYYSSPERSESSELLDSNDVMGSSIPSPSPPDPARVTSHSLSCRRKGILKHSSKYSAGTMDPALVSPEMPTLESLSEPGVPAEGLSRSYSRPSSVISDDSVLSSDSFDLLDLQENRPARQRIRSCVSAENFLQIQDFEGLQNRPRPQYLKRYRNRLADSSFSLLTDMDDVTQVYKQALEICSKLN", "assay": "Kinase selectivity test (HotSpot Full Panel Kinase profiling)", "assay_type": "biochemical", "details": "ARK5/NUAK1, compound 100 nM, ATP 10 μm; read-out: Residual activity (%)"}, "[9]": {"test_system": "head and neck squamous cell carcinoma", "details": "head and neck squamous cell carcinoma (Non Patent Literature 7); cited from earlier work"}, "[10]": {"details": "concentration upon compound introduction 3 mg/mL"}, "[11]": {"details": "concentration upon compound introduction 2 mg/mL"}}}
{"compound": "COc1ccnc(OCCCN)c1-c1cc(Nc2cnc(C#N)cn2)n[nH]1", "note": "[Example 1, 5-({5-[2-(3-aminopropoxy)-4-methoxypyridin-3-yl]-1H-pyrazol-3-yl}amino)pyrazine-2-carbonitrile]", "values": [{"measurement": "cell growth suppression effect compared with prexasertib", "setting": "ES-2 cells [1]", "result": "excellent cell growth suppression effect that is equivalent to that of prexasertib"}, {"measurement": "increase of ssDNA in cytoplasm", "setting": "[2]", "result": 1.5, "unit": "times"}, {"measurement": "increase of ssDNA in cytoplasm", "setting": "[3]", "result": 1.3, "unit": "times"}, {"measurement": "effect of suppressing human bone marrow cell colony formation", "setting": "[4]", "result": "does not exhibit an effect of suppressing human bone marrow colony formation"}, {"measurement": "Colony count (/well) mean", "setting": "[4]", "result": "34 /well"}, {"measurement": "effect of suppressing myeloid cells induced to differentiate from human bone marrow cells", "setting": "[5]", "result": "does not exhibit an effect of suppressing myeloid cells induced to differentiate from human bone marrow cells"}, {"measurement": "encapsulation efficiency", "setting": "[6]", "result": "≥ 80", "unit": "%"}, {"measurement": "Encapsulation efficiency (%)", "setting": "[6]; [10]", "result": 87.4, "unit": "%"}, {"measurement": "liquid viscosity during the liposome encapsulation procedure", "setting": "[6]; pH adjusted by adding 1 mol/L hydrochloric acid", "result": "increase in viscosity was not found"}, {"measurement": "inhibition of CYP3A4 based on MBI", "setting": "CYP3A4", "result": "do not exhibit inhibition of CYP3A4 based on MBI"}, {"measurement": "Factor of change in IC50 value", "setting": "CYP3A4; human liver microsome, pre-incubation in the presence of NADPH", "result": "Not Detected"}, {"measurement": "liposome encapsulation efficiency", "setting": "[7]", "result": "≥ 90", "unit": "%"}, {"measurement": "Encapsulation efficiency (%)", "setting": "[7]; [11]", "result": 91.3, "unit": "%"}, {"measurement": "Encapsulation efficiency (%)", "setting": "[7]; [10]", "result": 91.6, "unit": "%"}, {"measurement": "Encapsulation efficiency (%)", "setting": "[7]; concentration upon compound introduction 4 mg/mL", "result": 92.2, "unit": "%"}, {"measurement": "hERG/CHK1", "setting": "hERG current", "result": ">115000"}, {"measurement": "CHK1 inhibitory activity relative to prexasertib", "setting": "CHK1", "result": "≥ 5", "unit": "fold"}, {"measurement": "IC50", "setting": "CHK1", "result": "< 0.1", "unit": "nM"}, {"measurement": "effect of suppressing CHK1 activity compared with prexasertib", "setting": "CHK1", "result": "more potent effect of suppressing CHK1 activity than prexasertib"}]}
{"compound": "Nc1ccn([C@@H]2O[C@H](CO)[C@@H](O)C2(F)F)c(=O)n1", "note": "[Gemcitabine]", "values": [{"measurement": "CR (%)", "setting": "ES-2 cells [8]", "result": 0, "unit": "%"}, {"measurement": "T/C (%)", "setting": "ES-2 cells [8]", "result": 9, "unit": "%"}, {"measurement": "Ratio of residual neutrophils (%)", "setting": "neutrophils", "result": 39, "unit": "%"}]}
{"compound": "COc1cccc(OCCCN)c1-c1cc(Nc2cnc(C#N)cn2)n[nH]1", "note": "[Prexasertib, reference compound]", "values": [{"measurement": "effect of suppressing human bone marrow cell colony formation", "setting": "[4]", "result": "exhibits an effect of suppressing human bone marrow cell colony formation"}, {"measurement": "Colony count (/well) mean", "setting": "[4]", "result": "19 /well"}, {"measurement": "effect of suppressing myeloid cells induced to differentiate from human bone marrow cells", "setting": "[5]", "result": "exhibited an effect of suppressing myeloid cells induced to differentiate from human bone marrow cells"}, {"measurement": "Compound concentration in liposome solution", "setting": "[6]; [11]", "result": 2160, "unit": "µg/mL"}, {"measurement": "remaining activity at 0.1 µM", "setting": "ARK5/NUAK1", "result": 17.9, "unit": "%"}, {"measurement": "inhibition of CYP3A4 based on MBI", "setting": "CYP3A4", "result": "exhibits inhibition of CYP3A4 based on MBI"}]}
{"compound": "nivolumab", "values": [{"measurement": "overall response rate", "setting": "[9]", "result": 13.3, "unit": "%"}]}
